Columns and labels:
[1] = target: T1, swine growth hormone secretagogue receptor (Type I, clone 7-3) (Sus scrofa, UniProt Q95254); assay: 35S-Compound A binding assay, membranes of COS-7 cells transfected with clone 7-3
[2] = target: T2, human growth hormone secretagogue receptor (Type I) (Homo sapiens, UniProt Q92847); assay: aequorin bioluminescence assay in Xenopus oocytes; assay type: cell-based; details: human Type I cRNA expressed in oocytes; responded to concentrations ranging from 1 mM to as low as 0.1 nM
T2 construct: expressed in transfected cells; host or cells: Xenopus laevis oocytes injected with cRNA, together with aequorin and G-alpha-11 cRNA
T2 sequence (Q92847 whole entry): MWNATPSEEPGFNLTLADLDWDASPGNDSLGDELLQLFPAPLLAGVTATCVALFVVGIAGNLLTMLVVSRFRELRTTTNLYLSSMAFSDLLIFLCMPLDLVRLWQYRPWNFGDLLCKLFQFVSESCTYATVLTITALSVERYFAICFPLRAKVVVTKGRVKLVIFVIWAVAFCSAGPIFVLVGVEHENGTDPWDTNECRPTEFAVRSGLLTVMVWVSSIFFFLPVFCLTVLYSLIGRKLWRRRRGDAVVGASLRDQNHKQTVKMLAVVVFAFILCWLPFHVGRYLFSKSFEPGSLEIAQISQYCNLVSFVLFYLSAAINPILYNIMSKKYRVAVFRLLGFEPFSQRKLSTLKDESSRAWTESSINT
Protocol: (§1) Xenopus laevis oocytes were isolated and injected using standard methods previously described by Arena, et al., 1991, Mol. Pharmacol. 40, 368-374, which is hereby incorporated by reference. Adult female Xenopus laevis frogs (purchased from Xenopus One, Ann Arbor, Mich.) were anesthetized with 0.17% tricaine methanesulfonate and the ovaries were surgically removed and placed in a 60 mm culture dish (Falcon) containing OR-2 medium without calcium (82.5 mM NaCl, 2 mM KCl, 2.5 mM sodium pyruvate, 1 mM MgCl2, […] penicillin, 1 mg/ml streptomycin, 5 mM HEPES, pH=7.5; ND-96 from Specialty Media, N.J.). Ovarian lobes were broken open, rinsed several times, and oocytes were released from their sacs by collagenase A digestion (Boehringer-Mannheim; 0.2% for 2-3 hours at 18° C.) in calcium-free OR-2. […]
(§2) The ABA requires injection of library pool cRNA (25 ng/egg for pool sizes of 500 to 10,000) with aequorin cRNA (2 ng/egg) supplemented with the G-protein alpha subunit Ga11 (2 ng/egg). […] Polymerase chain reaction (PCR) was utilized to generate a DNA fragment corresponding to the open reading frame (ORF) of the aequorin cDNA with an optimized Kosak translational initiation sequence (Inouye, S. et. ul., 1985, Proc. Natl. Acad. Sci. USA 82:3154-3158). […]

[3] = target: T1, swine growth hormone secretagogue receptor (Type I, clone 7-3); assay: aequorin bioluminescence assay in Xenopus oocytes; assay type: cell-based; parameters: bioluminescence response: dose or concentration left out as unconfirmed
Protocol: as §1, §2

[4] = target: T3, rat GHSR type Ia (Rattus norvegicus, UniProt O08725); assay: aequorin bioluminescence in transfected 293-AEQ17 reporter cells; assay type: cell-based; details: rat GHSR ORF construct in 293-AEQ17 cells; three replicate samples (FIG. 26)
T3 construct: Met-1 to Val-260 with EcoRI (5′) and HpaI (3′) restriction sites appended, while a carboxyl-terminal fragment was generated from Lys-261 to Thr-364; expressed in transfected cells; host or cells: 293-AEQ17 (HEK-293 aequorin reporter line), transient lipofectamine transfection of the pSV7 ORF construct
T3 sequence (O08725 whole entry, the tested form may be a part): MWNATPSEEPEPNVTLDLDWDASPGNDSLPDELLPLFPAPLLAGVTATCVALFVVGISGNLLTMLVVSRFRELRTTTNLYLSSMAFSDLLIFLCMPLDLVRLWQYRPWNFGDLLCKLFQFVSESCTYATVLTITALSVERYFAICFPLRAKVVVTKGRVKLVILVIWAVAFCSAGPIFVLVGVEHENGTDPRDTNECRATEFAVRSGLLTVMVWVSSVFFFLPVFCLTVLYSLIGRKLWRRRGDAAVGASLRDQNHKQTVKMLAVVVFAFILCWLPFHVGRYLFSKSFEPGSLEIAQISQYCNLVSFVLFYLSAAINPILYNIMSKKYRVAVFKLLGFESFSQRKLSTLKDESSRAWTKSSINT
Protocol: Functional activity of the ORF construct was assessed by transfecting (using lipofectamine; GIBCO/BRL) […] of plasmid DNA into the aequorin expressing reporter cell line (293-AEQ17) cultured in 60 mm dishes. Following approximately 40 hours of expression the aequorin in the cells was charged for 2 hours with coelenterazine, the cells were harvested, washed and pelleted by low speed centrifugation into luminometer tubes. Functional activity was determined by measuring Compound A dependent mobilization of intracellular calcium and concomitant calcium induced aequorin bioluminescence.

T1 sequence (Q95254 65-366): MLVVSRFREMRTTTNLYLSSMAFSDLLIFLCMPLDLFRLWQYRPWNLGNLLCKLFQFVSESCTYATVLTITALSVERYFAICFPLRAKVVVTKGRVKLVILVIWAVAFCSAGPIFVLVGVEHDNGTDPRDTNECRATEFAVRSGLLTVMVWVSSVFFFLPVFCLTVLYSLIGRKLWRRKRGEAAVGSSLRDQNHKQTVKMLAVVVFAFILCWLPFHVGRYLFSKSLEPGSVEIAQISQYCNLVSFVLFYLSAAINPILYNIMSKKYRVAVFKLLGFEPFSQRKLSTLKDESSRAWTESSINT

CC(C)(N)C(=O)N[C@H](COCc1ccccc1)C(=O)N1CCC2(CC1)CN([35S](C)(=O)=O)c1ccccc12 [^35S-Compound A]
Kd [1]: ~0.2 nM | Bmax ([1]; clone 7-3 expressed transiently in COS-7 cells, saturable binding): ~80 fmol/mg protein

CC(C)(N)C(=O)N[C@H](COCc1ccccc1)C(=O)N1CCC2(CC1)CN(S(C)(=O)=O)c1ccccc12 [Compound A]
lowest Compound A concentration giving a response [2]: 0.1 nM | bioluminescence response ([3]; oocytes injected with cRNA of clones 7-3 and 28-18): positive bioluminescence response | lowest Compound A concentration giving a response ([3]; swine Type I cRNA expressed in oocytes, responded to concentrations ranging from 1 mM to as low as 0.1 nM): 0.1 nM | luminescent response (mobilization of intracellular calcium) [4]: luminescent responses
